Structures can show the parent of a compound that is named as a salt. Where two headings read alike, the source gives them in different places.
System: 22RV1 cells
Assay: Experiment 2 on inhibiting 22RV1 cell proliferation (7 days, CellTiter-Glo)
Format: cell-based
Conditions: 1% css-FBS phenol red-free medium, incubated with compound 7 days, read-out: IC50 values on proliferation inhibition of 22RV1 cells
Description: Prostate cancer cells 22RV1 were purchased from ATCC, the cell medium was RPMI 1640+10% FBS, and the cells were cultured in an incubator at 37° C. under 5% CO2. On day 1, the cells in an exponential phase were collected. With a 1% css-FBS phenol red-free medium, the cell suspension was adjusted to a corresponding concentration, plated at 2000 cells/well and incubated overnight. On day 2, compounds at different concentrations were added, and the plate was placed in the incubator and incubated for further 7 days. After the incubation was completed, according to operation instructions for a CellTiter-Glo kit (Promega, G7573), 50 μL of CTG solution, which was already pre-melted and equilibrated to room temperature, was added to each well, and the mixtures were uniformly mixed for 2 min using a microplate shaker. The plate was placed at room temperature for 10 min, and then fluorescence signal values were measured using a microplate reader (PHERAstar FSX). The results were processed according to formula (2), the survival rate of the compound at different concentrations was calculated, and the IC50 value of the compound with a survival rate of 50% was calculated using origin9.2 software with DoseResp function, wherein RLU compound was the readout of the treated group, and RLU control was the average value of the DMSO vehicle control group.

IC50 [nM]	IC50 (Homo sapiens, 22Rv1, 168 h) [nM]	Structure (SMILES)
356	–	CC(C)(c1ccc(OCc2ccnc(N3CCN(CC4CCN(C5CCN(c6ccc7c(c6)C(=O)N(C6CCC(=O)NC6=O)C7=O)CC5)CC4)CC3)n2)cc1)c1cc(Cl)c(OCCCl)c(C#N)c1 (stereo not shown) [Compound 11, 3-chloro-2-(2-chloroethoxy)-5-(2-(4-((2-(4-((1′-(2-(2,6-dioxopiperidin-3-yl)-1,3-dioxoisoindolin-5-yl)-[1,4′-bipiperidin]-4-yl)methyl)piperazin-1-yl)pyrimidin-4-yl)methoxy)phenyl)propan-2-yl)benzonitrile]
804	–	CC(C)(c1ccc(OCc2ccnc(N3CCN(CC4CCN(C5CCN(c6cccc7c6C(=O)N(C6CCC(=O)NC6=O)C7=O)CC5)CC4)CC3)n2)cc1)c1cc(Cl)c(OCCCl)c(C#N)c1 (stereo not shown) [Compound 12, 3-chloro-2-(2-chloroethoxy)-5-(2-(4-((2-(4-((1′-(2-(2,6-dioxopiperidin-3-yl)-1,3-dioxoisoindolin-4-yl)-[1,4′-bipiperidin]-4-yl)methyl)piperazin-1-yl)pyrimidin-4-yl)methoxy)phenyl)propan-2-yl)benzonitrile]
721	–	CC(C)(c1ccc(OCc2ccnc(N3CCN(CC4CCN(CC5CCN(c6ccc7c(c6)C(=O)N(C6CCC(=O)NC6=O)C7=O)CC5)CC4)CC3)n2)cc1)c1cc(Cl)c(OCCCl)c(C#N)c1 (stereo not shown) [Compound 13, 3-chloro-2-(2-chloroethoxy)-5-(2-(4-((2-(4-((1-((1-(2-(2,6-dioxopiperidin-3-yl)-1,3-dioxoisoindolin-5-yl)piperidin-4-yl)methyl)piperidin-4-yl)methyl)piperazin-1-yl)pyrimidin-4-yl)methoxy)phenyl)propan-2-yl)benzonitrile]
628	–	CC(C)(c1ccc(OCc2ccnc(N3CCN(CC4CCN(CC5CCN(c6cccc7c6C(=O)N(C6CCC(=O)NC6=O)C7=O)CC5)CC4)CC3)n2)cc1)c1cc(Cl)c(OCCCl)c(C#N)c1 (stereo not shown) [Compound 14, 3-chloro-2-(2-chloroethoxy)-5-(2-(4-((2-(4-((1-((1-(2-(2,6-dioxopiperidin-3-yl)-1,3-dioxoisoindolin-4-yl)piperidin-4-yl)methyl)piperidin-4-yl)methyl)piperazin-1-yl)pyrimidin-4-yl)methoxy)phenyl)propan-2-yl)benzonitrile]
802	–	CC(C)(c1ccc(OCc2ccnc(N3C[C@@H]4CN(C5CCN(CC6CCN(c7ccc8c(c7)C(=O)N(C7CCC(=O)NC7=O)C8=O)CC6)CC5)C[C@@H]4C3)n2)cc1)c1cc(Cl)c(OCCCl)c(C#N)c1 (stereo partly drawn) [Compound 16, 3-chloro-2-(2-chloroethoxy)-5-(2-(4-((2-((3aR,6aS)-5-(1-((1-(2-(2,6-dioxopiperidin-3-yl)-1,3-dioxoisoindolin-5-yl)piperidin-4-yl)methyl)piperidin-4-yl)hexahydropyrrolo[3,4-c]pyrrol-2(1H)-yl)pyrimidin-4-yl)methoxy)phenyl)propan-2-yl)benzonitrile]
1020	–	CC(C)(c1ccc(OCc2ccnc(N3C[C@@H]4CN(C5CCN(C6CN(c7ccc8c(c7)C(=O)N(C7CCC(=O)NC7=O)C8=O)C6)CC5)C[C@@H]4C3)n2)cc1)c1cc(Cl)c(OCCCl)c(C#N)c1 (stereo partly drawn) [Compound 17, 3-chloro-2-(2-chloroethoxy)-5-(2-(4-((2-((3aR,6aS)-5-(1-(1-(2-(2,6-dioxopiperidin-3-yl)-1,3-dioxoisoindolin-5-yl)azetidin-3-yl)piperidin-4-yl)hexahydropyrrolo[3,4-c]pyrrol-2(1H)-yl)pyrimidin-4-yl)methoxy)phenyl)propan-2-yl)benzonitrile]
954	–	CC(C)(c1ccc(OCc2ccnc(N3CCC4(CC3)CN(C3CCN(C5CN(c6ccc7c(c6)C(=O)N(C6CCC(=O)NC6=O)C7=O)C5)CC3)C4)n2)cc1)c1cc(Cl)c(OCCCl)c(C#N)c1 (stereo not shown) [Compound 20, 3-chloro-2-(2-chloroethoxy)-5-(2-(4-((2-(2-(1-(1-(2-(2,6-dioxopiperidin-3-yl)-1,3-dioxoisoindolin-5-yl)azetidin-3-yl)piperidin-4-yl)-2,7-diazaspiro[3.5]nonan-7-yl)pyrimidin-4-yl)methoxy)phenyl)propan-2-yl)benzonitrile]
507	–	CC(C)(c1ccc(OCc2ccnc(N3CCC4(CC3)CN(C3CCN(CC5CCN(c6ccc7c(c6)C(=O)N(C6CCC(=O)NC6=O)C7=O)CC5)CC3)C4)n2)cc1)c1cc(Cl)c(OCCCl)c(C#N)c1 (stereo not shown) [Compound 21, 3-chloro-2-(2-chloroethoxy)-5-(2-(4-((2-(2-(1-((1-(2-(2,6-dioxopiperidin-3-yl)-1,3-dioxoisoindolin-5-yl)piperidin-4-yl)methyl)piperidin-4-yl)-2,7-diazaspiro[3.5]nonan-7-yl)pyrimidin-4-yl)methoxy)phenyl)propan-2-yl)benzonitrile]
500	–	CC(C)(c1ccc(OCc2ccnc(N3CC4(CCN(C5CCN(C6CN(c7ccc8c(c7)C(=O)N(C7CCC(=O)NC7=O)C8=O)C6)CC5)CC4)C3)n2)cc1)c1cc(Cl)c(OCCCl)c(C#N)c1 (stereo not shown) [Compound 23, 3-chloro-2-(2-chloroethoxy)-5-(2-(4-((2-(7-(1-(1-(2-(2,6-dioxopiperidin-3-yl)-1,3-dioxoisoindolin-5-yl)azetidin-3-yl)piperidin-4-yl)-2,7-diazaspiro[3.5]nonan-2-yl)pyrimidin-4-yl)methoxy)phenyl)propan-2-yl)benzonitrile]
569	–	CC(C)(c1ccc(OCc2ccnc(N3CC4(CCN(C5CCN(CC6CCN(c7ccc8c(c7)C(=O)N(C7CCC(=O)NC7=O)C8=O)CC6)CC5)CC4)C3)n2)cc1)c1cc(Cl)c(OCCCl)c(C#N)c1 (stereo not shown) [Compound 24, 3-chloro-2-(2-chloroethoxy)-5-(2-(4-((2-(7-(1-((1-(2-(2,6-dioxopiperidin-3-yl)-1,3-dioxoisoindolin-5-yl)piperidin-4-yl)methyl)piperidin-4-yl)-2,7-diazaspiro[3.5]nonan-2-yl)pyrimidin-4-yl)methoxy)phenyl)propan-2-yl)benzonitrile]
542	–	CC(C)(c1ccc(OCc2ccnc(N3CC4(CCN(C5CCN(CC6CCN(c7cccc8c7C(=O)N(C7CCC(=O)NC7=O)C8=O)CC6)CC5)CC4)C3)n2)cc1)c1cc(Cl)c(OCCCl)c(C#N)c1 (stereo not shown) [Compound 25, 3-chloro-2-(2-chloroethoxy)-5-(2-(4-((2-(7-(1-((1-(2-(2,6-dioxopiperidin-3-yl)-1,3-dioxoisoindolin-4-yl)piperidin-4-yl)methyl)piperidin-4-yl)-2,7-diazaspiro[3.5]nonan-2-yl)pyrimidin-4-yl)methoxy)phenyl)propan-2-yl)benzonitrile]
548	–	Cn1c(=O)n(C2CCC(=O)NC2=O)c2cccc(CN3CC(N4CCC(N5CCC6(CC5)CN(c5nccc(COc7ccc(C(C)(C)c8cc(Cl)c(OCCCl)c(C#N)c8)cc7)n5)C6)CC4)C3)c21 (stereo not shown) [Compound 26, 3-chloro-2-(2-chloroethoxy)-5-(2-(4-((2-(7-(1-(1-((1-(2,6-dioxopiperidin-3-yl)-3-methyl-2-oxo-2,3-dihydro-1H-benzo[d]imidazol-4-yl)methyl)azetidin-3-yl)piperidin-4-yl)-2,7-diazaspiro[3.5]nonan-2-yl)pyrimidin-4-yl)methoxy)phenyl)propan-2-yl)benzonitrile]
663	–	CC(C)(c1ccc(OCc2ccnc(N3CCC4(CC3)CCN(C3CCN(CC5CCN(c6ccc7c(c6)C(=O)N(C6CCC(=O)NC6=O)C7=O)CC5)CC3)CC4)n2)cc1)c1cc(Cl)c(OCCCl)c(C#N)c1 (stereo not shown) [Compound 27, 3-chloro-2-(2-chloroethoxy)-5-(2-(4-((2-(9-(1-((1-(2-(2,6-dioxopiperidin-3-yl)-1,3-dioxoisoindolin-5-yl)piperidin-4-yl)methyl)piperidin-4-yl)-3,9-diazaspiro[5.5]undecan-3-yl)pyrimidin-4-yl)methoxy)phenyl)propan-2-yl)benzonitrile]
634	–	CC(C)(c1ccc(OCc2ccnc(N3CCC4(CC3)CCN(C3CCN(CC5CCN(c6cccc7c6C(=O)N(C6CCC(=O)NC6=O)C7=O)CC5)CC3)CC4)n2)cc1)c1cc(Cl)c(OCCCl)c(C#N)c1 (stereo not shown) [Compound 28, 3-chloro-2-(2-chloroethoxy)-5-(2-(4-((2-(9-(1-((1-(2-(2,6-dioxopiperidin-3-yl)-1,3-dioxoisoindolin-4-yl)piperidin-4-yl)methyl)piperidin-4-yl)-3,9-diazaspiro[5.5]undecan-3-yl)pyrimidin-4-yl)methoxy)phenyl)propan-2-yl)benzonitrile]
–	788	Cn1c(=O)n(C2CCC(=O)NC2=O)c2cccc(CN3CC(N4CCC5(CCN(c6nccc(COc7ccc(C(C)(C)c8cc(Cl)c(OCCCl)c(C#N)c8)cc7)n6)CC5)CC4)C3)c21 (stereo not shown) [Compound 29 trifluoroacetate, 3-chloro-2-(2-chloroethoxy)-5-(2-(4-((2-(9-(1-((1-(2,6-dioxopiperidin-3-yl)-3-methyl-2-oxo-2,3-dihydro-1H-benzo[d]imidazol-4-yl)methyl)azetidin-3-yl)-3,9-diazaspiro[5.5]undecan-3-yl)pyrimidin-4-yl)methoxy)phenyl)propan-2-yl)benzonitrile]
–	834	CC(C)(c1ccc(OCc2ccnc(N3CCC4(CC3)CCN(C3CCN(C5CN(c6ccc7c(c6)C(=O)N(C6CCC(=O)NC6=O)C7=O)C5)CC3)CC4)n2)cc1)c1cc(Cl)c(OCCCl)c(C#N)c1 (stereo not shown) [Compound 30 trifluoroacetate, 3-chloro-2-(2-chloroethoxy)-5-(2-(4-((2-(9-(1-(1-(2-(2,6-dioxopiperidin-3-yl)-1,3-dioxoisoindolin-5-yl)azetidin-3-yl)piperidin-4-yl)-3,9-diazaspiro[5.5]undecan-3-yl)pyrimidin-4-yl)methoxy)phenyl)propan-2-yl)benzonitrile]

Reference: patent publication US20240383874A1, “BENZENE RING DERIVATIVE, AND COMPOSITION AND PHARMACEUTICAL USE THEREOF” (Xizang Haisco Pharmaceutical Co., Ltd., priority 2020, published 2024)
